Test results: paper PMC5762315, “Inhibition of polo-like kinase 4 (PLK4): a new therapeutic option for rhabdoid tumors and pediatric medulloblastoma” (Oncotarget, 2017)
Values joined by “and” are separate entries in the source; they are usually repeats but may differ in a detail not shown here. Equal values may be shown once.

Tests used:
Experiment in all cases: Adapta Universal Kinase Assay, panel of 486 biochemical kinase assays
Set-up in all cases: % Inhibition Average: concentration or dose not given beside the values
various kinases [1] = target: various kinases (Homo sapiens, UniProt Q9UBF8); conditions: PI4KB (PI4K beta)
various kinases [2] = target: various kinases (Homo sapiens, UniProt O75747); conditions: PIK3C2G (PI3K-C2 gamma)
various kinases [3] = target: various kinases (Homo sapiens, UniProt O60285); conditions: NUAK1 (ARK5)
various kinases (Homo sapiens, UniProt O60285), sequence (O60285 whole entry): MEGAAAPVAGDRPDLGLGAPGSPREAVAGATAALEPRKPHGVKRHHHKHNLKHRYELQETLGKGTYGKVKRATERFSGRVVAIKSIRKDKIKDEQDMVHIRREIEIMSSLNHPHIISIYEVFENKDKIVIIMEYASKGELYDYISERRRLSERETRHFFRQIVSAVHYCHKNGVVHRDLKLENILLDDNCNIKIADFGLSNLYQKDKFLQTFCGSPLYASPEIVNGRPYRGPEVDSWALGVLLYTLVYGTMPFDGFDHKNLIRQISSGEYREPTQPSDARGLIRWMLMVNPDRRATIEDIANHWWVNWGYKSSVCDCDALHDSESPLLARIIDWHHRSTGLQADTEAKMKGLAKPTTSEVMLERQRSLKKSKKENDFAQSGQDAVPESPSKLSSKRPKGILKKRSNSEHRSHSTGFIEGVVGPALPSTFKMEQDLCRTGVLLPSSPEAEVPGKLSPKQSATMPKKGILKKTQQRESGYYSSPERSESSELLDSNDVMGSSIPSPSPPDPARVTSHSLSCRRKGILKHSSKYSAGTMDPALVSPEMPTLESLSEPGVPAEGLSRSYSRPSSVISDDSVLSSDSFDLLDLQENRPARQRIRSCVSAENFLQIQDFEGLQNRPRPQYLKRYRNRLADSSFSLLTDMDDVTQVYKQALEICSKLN

various kinases [4] = target: various kinases (Homo sapiens, UniProt Q5S007, I2020T); conditions: LRRK2 I2020T
various kinases (Homo sapiens, UniProt Q5S007, I2020T), sequence (Q5S007 whole entry I2020T): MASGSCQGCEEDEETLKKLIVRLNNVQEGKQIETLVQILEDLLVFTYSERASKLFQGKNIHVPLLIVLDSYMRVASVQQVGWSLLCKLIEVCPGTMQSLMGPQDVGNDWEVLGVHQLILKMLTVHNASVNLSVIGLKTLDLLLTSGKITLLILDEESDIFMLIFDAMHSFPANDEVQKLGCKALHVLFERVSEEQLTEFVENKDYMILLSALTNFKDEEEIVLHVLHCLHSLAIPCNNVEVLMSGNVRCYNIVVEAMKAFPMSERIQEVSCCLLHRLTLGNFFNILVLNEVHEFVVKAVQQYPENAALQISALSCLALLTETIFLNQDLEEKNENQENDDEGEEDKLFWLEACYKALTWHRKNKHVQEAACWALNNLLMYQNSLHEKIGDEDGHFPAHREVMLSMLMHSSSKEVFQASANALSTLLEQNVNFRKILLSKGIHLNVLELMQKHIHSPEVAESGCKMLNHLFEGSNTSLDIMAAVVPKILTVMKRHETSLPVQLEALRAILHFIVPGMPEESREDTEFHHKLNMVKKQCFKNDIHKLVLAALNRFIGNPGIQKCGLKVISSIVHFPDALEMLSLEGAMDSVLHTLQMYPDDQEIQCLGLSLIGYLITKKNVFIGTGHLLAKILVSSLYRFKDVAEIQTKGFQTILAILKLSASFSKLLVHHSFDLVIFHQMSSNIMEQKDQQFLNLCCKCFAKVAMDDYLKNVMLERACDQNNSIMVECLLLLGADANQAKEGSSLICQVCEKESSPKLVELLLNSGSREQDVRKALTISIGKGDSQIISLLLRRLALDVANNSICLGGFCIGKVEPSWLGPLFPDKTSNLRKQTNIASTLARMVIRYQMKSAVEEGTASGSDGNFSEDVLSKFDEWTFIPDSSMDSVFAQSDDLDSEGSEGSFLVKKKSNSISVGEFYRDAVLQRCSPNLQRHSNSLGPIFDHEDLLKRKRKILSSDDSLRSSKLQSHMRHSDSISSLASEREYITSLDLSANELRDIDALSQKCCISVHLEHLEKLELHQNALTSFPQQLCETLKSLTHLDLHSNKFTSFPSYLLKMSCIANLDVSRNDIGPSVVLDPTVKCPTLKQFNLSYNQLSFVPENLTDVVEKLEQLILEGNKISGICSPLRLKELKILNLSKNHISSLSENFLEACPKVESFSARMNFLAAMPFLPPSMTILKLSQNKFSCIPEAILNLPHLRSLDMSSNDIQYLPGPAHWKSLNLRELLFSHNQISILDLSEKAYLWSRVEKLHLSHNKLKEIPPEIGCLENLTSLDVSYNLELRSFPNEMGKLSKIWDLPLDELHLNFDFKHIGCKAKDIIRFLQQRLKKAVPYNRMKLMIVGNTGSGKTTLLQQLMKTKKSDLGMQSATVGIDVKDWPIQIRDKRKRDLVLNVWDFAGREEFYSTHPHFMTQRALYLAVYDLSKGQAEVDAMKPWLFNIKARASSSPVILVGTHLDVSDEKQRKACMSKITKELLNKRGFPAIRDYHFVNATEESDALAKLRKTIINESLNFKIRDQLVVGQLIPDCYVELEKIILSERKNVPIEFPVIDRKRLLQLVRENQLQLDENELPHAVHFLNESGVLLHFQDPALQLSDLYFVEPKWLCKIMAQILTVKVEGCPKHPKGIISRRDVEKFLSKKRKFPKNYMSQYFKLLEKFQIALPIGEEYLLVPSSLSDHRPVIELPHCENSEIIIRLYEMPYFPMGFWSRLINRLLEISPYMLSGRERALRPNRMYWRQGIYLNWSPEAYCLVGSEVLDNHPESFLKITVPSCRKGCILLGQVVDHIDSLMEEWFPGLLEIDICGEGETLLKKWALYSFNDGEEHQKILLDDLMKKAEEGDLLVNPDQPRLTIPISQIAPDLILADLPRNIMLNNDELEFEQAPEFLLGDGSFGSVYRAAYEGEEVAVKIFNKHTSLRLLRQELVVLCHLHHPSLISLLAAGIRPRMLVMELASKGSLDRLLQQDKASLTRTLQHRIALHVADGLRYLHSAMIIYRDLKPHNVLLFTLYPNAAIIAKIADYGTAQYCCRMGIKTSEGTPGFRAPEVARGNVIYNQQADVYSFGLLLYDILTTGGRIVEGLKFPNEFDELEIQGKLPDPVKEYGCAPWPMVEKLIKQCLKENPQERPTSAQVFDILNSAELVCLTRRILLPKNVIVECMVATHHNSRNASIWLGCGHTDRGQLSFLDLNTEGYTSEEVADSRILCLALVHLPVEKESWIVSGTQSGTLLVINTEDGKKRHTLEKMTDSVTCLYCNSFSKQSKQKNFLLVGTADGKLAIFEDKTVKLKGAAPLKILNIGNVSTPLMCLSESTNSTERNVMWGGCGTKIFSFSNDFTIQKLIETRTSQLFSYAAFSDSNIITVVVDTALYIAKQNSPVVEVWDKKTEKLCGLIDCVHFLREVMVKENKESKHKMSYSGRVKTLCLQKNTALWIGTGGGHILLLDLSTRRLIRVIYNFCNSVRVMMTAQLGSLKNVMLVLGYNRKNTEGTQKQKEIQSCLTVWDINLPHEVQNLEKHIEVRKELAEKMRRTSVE

various kinases [5] = target: various kinases (Homo sapiens, UniProt Q9NYA1); conditions: kinase SPHK1; Adapta
various kinases (Homo sapiens, UniProt Q9NYA1), sequence (Q9NYA1 whole entry): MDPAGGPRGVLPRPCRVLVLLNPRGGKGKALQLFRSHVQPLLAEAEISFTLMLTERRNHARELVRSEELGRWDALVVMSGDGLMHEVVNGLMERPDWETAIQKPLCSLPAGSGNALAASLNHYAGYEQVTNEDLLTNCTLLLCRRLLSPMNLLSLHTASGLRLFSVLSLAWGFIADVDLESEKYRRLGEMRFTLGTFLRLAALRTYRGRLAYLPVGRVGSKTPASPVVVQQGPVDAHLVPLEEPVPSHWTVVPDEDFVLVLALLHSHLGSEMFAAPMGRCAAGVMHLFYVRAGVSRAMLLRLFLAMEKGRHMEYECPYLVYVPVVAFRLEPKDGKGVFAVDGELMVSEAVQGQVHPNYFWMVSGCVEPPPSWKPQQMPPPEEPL

various kinases [6] = target: various kinases (Homo sapiens, UniProt P50613); conditions: CDK7/cyclin H/MNAT1
various kinases [7] = target: various kinases (Homo sapiens, UniProt O00443); conditions: PIK3C2A (PI3K-C2 alpha)
various kinases [8] = target: various kinases (Homo sapiens, UniProt P42336)
various kinases [9] = target: various kinases (Homo sapiens, UniProt O60331); conditions: kinase PIP5K1C; Adapta
various kinases (Homo sapiens, UniProt O60331), sequence (O60331 whole entry): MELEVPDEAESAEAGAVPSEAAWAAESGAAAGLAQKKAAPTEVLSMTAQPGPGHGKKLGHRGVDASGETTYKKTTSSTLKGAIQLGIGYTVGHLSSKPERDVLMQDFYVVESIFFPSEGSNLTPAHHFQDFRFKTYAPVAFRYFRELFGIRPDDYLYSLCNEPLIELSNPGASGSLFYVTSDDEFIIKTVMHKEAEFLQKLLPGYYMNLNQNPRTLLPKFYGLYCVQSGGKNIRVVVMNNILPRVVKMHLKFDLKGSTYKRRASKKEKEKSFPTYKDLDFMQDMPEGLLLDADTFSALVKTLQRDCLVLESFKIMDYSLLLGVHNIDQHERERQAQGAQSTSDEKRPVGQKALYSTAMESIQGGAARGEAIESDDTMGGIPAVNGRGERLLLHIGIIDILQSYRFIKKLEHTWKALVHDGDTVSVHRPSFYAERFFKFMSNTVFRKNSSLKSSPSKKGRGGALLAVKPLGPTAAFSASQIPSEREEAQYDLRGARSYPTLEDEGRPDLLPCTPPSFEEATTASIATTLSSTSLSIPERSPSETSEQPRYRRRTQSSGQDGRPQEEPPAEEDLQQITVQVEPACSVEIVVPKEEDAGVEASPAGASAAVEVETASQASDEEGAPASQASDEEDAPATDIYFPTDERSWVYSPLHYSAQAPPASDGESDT

various kinases [10] = target: various kinases (Homo sapiens, UniProt P48736); conditions: PIK3CG (p110 gamma)
various kinases [11] = target: various kinases (Homo sapiens, UniProt P42356); conditions: PI4KA (PI4K alpha)
various kinases [12] = target: various kinases (Homo sapiens, UniProt Q9BTU6); conditions: PI4K2A (PI4K2 alpha)
various kinases [13] = target: various kinases (Homo sapiens, UniProt Q5S007, R1441C); conditions: LRRK2 R1441C
various kinases (Homo sapiens, UniProt Q5S007, R1441C), sequence (Q5S007 whole entry R1441C): as the sequence (Q5S007 whole entry I2020T) above, with R1441C, T2020I counted along it

various kinases [14] = target: various kinases (Homo sapiens, UniProt O15111); conditions: CHUK (IKK alpha)
various kinases [15] = target: various kinases (Homo sapiens, UniProt P53355); conditions: DAPK1
various kinases [16] = target: various kinases (Homo sapiens, UniProt P48426); conditions: PIP4K2A
various kinases [17] = target: various kinases (Homo sapiens, UniProt Q8NEB9); conditions: PIK3C3 (hVPS34)
various kinases [18] = target: various kinases (Homo sapiens, UniProt O00750); conditions: PIK3C2B (PI3K-C2 beta)
various kinases [19] = target: various kinases (Homo sapiens, UniProt Q99755); conditions: PIP5K1A
various kinases [20] = target: various kinases (Homo sapiens, UniProt Q14012); conditions: CAMK1 (CaMK1)
various kinases (Homo sapiens, UniProt Q14012), sequence (Q14012 whole entry): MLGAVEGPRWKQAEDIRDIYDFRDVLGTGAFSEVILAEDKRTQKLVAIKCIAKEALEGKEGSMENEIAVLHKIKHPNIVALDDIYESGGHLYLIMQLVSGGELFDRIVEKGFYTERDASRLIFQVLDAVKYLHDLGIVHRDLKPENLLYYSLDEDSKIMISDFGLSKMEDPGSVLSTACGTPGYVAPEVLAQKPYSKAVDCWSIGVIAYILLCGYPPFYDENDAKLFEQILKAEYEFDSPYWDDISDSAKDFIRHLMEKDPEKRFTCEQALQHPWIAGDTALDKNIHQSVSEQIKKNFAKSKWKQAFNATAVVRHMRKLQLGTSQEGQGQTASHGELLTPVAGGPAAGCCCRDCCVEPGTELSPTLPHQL

various kinases [21] = target: various kinases (Homo sapiens, UniProt Q8TCG2); conditions: PI4K2B (PI4K2 beta)
various kinases [22] = target: various kinases (Homo sapiens, UniProt P11802)
various kinases (Homo sapiens, UniProt P11802), sequence (P11802 whole entry): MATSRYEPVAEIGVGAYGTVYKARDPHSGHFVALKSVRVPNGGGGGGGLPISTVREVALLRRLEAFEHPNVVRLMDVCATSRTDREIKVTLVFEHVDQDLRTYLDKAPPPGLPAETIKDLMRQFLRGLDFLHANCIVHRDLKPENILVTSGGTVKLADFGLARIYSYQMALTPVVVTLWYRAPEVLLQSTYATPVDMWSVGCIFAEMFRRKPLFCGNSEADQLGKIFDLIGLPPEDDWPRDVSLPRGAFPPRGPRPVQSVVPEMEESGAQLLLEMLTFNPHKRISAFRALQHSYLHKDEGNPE

various kinases [23] = target: various kinases (Homo sapiens, UniProt Q5S007, G2019S)
various kinases (Homo sapiens, UniProt Q5S007, G2019S), sequence (Q5S007 whole entry G2019S): as the sequence (Q5S007 whole entry I2020T) above, with G2019S, T2020I counted along it

various kinases [24] = target: various kinases (Homo sapiens, UniProt P42336, E545K); conditions: PIK3CA E545K/PIK3R1 (p110 alpha E545K/p85 alpha)
various kinases [25] = target: various kinases (Homo sapiens, UniProt P50750); conditions: CDK9/cyclin T1

`COc1ccc2c(c1)[C@]1(C[C@H]1c1ccc3c(/C=C/c4ccc(CN5C[C@@H](C)O[C@@H](C)C5)cc4)n[nH]c3c1)C(=O)N2` [CFI-400945] was tested, and the “% Inhibition” value (various kinases [1]) was 3% and 11%, the “% Inhibition” value (various kinases [2]) was -1% and -6% and the “% Inhibition” value (various kinases [3]) was 66% and 65%. For the same molecule, the IC50 (various kinases [3]) was 272 nM, the “% Inhibition” value (various kinases [4]) was 44% and 46% and the “% Inhibition Average” value (various kinases [5]) was -12%. For the same molecule, the “% Inhibition Duplicate #1” value (various kinases [5]) was -11%, the “% Inhibition Duplicate #2” value (various kinases [5]) was -14% and the “% Inhibition” value (various kinases [6]) was -11% and -6%. For the same molecule, the “% Inhibition” value (various kinases [7]) was 0% and 1%, the “% Inhibition” value (various kinases [8]; PIK3CA/PIK3R1 (p110 alpha/p85 alpha)) was -9% and -6% and the “% Inhibition” value (various kinases [8]; PIK3CA/PIK3R3 (p110 alpha/p55 gamma)) was -2% and 6%. For the same molecule, the “% Inhibition Average” value (various kinases [9]) was 8%, the “% Inhibition Duplicate #1” value (various kinases [9]) was 8% and the “% Inhibition Duplicate #2” value (various kinases [9]) was 8%. The “% Inhibition” value (various kinases [10]) was -2% and -5%, the “% Inhibition” value (various kinases [11]) was 12% and 7% and the “% Inhibition” value (various kinases [12]) was -1% and 2%. For the same molecule, the “% Inhibition” value (various kinases [13]) was 35% and 42%, the “% Inhibition” value (various kinases [14]) was -11% and the “% Inhibition” value (various kinases [15]) was 2% and 0%. For the same molecule, the “% Inhibition” value (various kinases [16]) was 5% and 10%, the “% Inhibition” value (various kinases [17]) was 8% and 15% and the “% Inhibition” value (various kinases [18]) was 2% and -1%. The “% Inhibition” value (various kinases [19]) was -3% and 4%, the “% Inhibition” value (various kinases [20]) was 21% and 24% and the “% Inhibition” value (various kinases [21]) was -13% and -11%. For the same molecule, the “% Inhibition” value (various kinases [22]; CDK4/cyclin D1) was 10% and 9%, the “% Inhibition” value (various kinases [22]; CDK4/cyclin D3) was 5% and 8% and the “% Inhibition” value (various kinases [23]; LRRK2 G2019S) was 54% and 55%. For the same molecule, the “% Inhibition” value (various kinases [23]; LRRK2 G2019S FL) was 54% and 50%, the “% Inhibition” value (various kinases [24]) was -5% and -9% and the “% Inhibition” value (various kinases [25]) was 17% and 14%.
